Laboratory results from ChEMBL document CHEMBL4818987, “Recent advances of podophyllotoxin/epipodophyllotoxin hybrids in anticancer activity, mode of action, and structure-activity relationship: An update (2010-2020)” (Eur J Med Chem, 2020).

Key:
K562/A02 [1] = assay: Potency index, ratio of etoposide GI50 to test compound GI50 for human K562/A02 cells; format: functional
K562 [2] = assay: Cytotoxicity against human K562 cells by SRB assay; format: functional, cell-based
K562/A02 [3] = assay: Cytotoxicity against human K562/A02 cells by SRB assay; format: functional, cell-based
K562/A02 [4] = assay: Potency index, ratio of doxorubicin IC50 to test compound IC50 for human K562/A02 cells; format: functional
HeLa [5] = assay: Antiproliferative activity against human HeLa cells by MTT assay; format: functional, cell-based
K562/A02 [6] = assay: Antiproliferative activity against human K562/A02 cells by MTT assay; format: functional, cell-based
K562 [7] = assay: Antiproliferative activity against human K562 cells by MTT assay; format: functional, cell-based
HeLa [8] = assay: Potency index, ratio of etoposide IC50 to test compound IC50 for human HeLa cells; format: functional
K562 [9] = assay: Potency index, ratio of etoposide IC50 to test compound IC50 for human K562 cells; format: functional
[10] = Resistance index, ratio of IC50 for human K562/AO2 cells to IC50 for human K562 cells; format: functional
MKN-45 [11] = assay: Antiproliferative activity against human MKN-45 cells incubated for 72 hrs by MTT assay; format: functional, cell-based; settings: Homo sapiens, MKN-45, 72 h
BGC-823 [12] = assay: Potency index, ratio of etoposide IC50 to test compound IC50 for antiproliferative activity against human BGC-823 cells; format: functional
BGC-823 [13] = assay: Antiproliferative activity against human BGC-823 cells incubated for 72 hrs by MTT assay; format: functional, cell-based; settings: BGC-823, 72 h
MKN-45 [14] = assay: Potency index, ratio of etoposide IC50 to test compound IC50 for antiproliferative activity against human MKN-45 cells; format: functional
A549 [15] = assay: Antiproliferative activity against human A549 cells incubated for 48 hrs by MTT assay; format: functional, cell-based; settings: A549, 48 h
MCF7 [16] = assay: Antiproliferative activity against human MCF7 cells incubated for 48 hrs by MTT assay; format: functional, cell-based; settings: MCF7, 48 h
SW480 = assay: Antiproliferative activity against human SW480 cells incubated for 48 hrs by MTT assay; format: functional, cell-based; settings: SW480, 48 h
SMMC-7721 = assay: Antiproliferative activity against human SMMC-7721 cells incubated for 48 hrs by MTT assay; format: functional, cell-based; settings: SMMC-7721, 48 h
HL-60 = assay: Antiproliferative activity against human HL-60 cells incubated for 48 hrs by MTT assay; format: functional, cell-based; settings: HL-60, 48 h
CCRF S-180 = assay: Antitumor activity against mouse S180 cells implanted in ICR mouse assessed as reduction in tumor weight at 20 mg/kg, ip administered everyday for 7 days relative to control; format: functional; parameters: scale not given: the % may be the effect or the level left; settings: time 7 day
HepG2 = assay: Cytotoxicity against human HepG2 cells incubated for 24 hrs by CCK8 assay; format: functional, cell-based; settings: HepG2, 24 h
HeLa [17] = assay: Cytotoxicity against human HeLa cells incubated for 24 hrs by CCK8 assay; format: functional, cell-based
A549 [18] = assay: Cytotoxicity against human A549 cells incubated for 24 hrs by CCK8 assay; format: functional, cell-based; settings: A549, 24 h
MCF7 [19] = assay: Cytotoxicity against human MCF7 cells incubated for 24 hrs by CCK8 assay; format: functional, cell-based; settings: MCF7, 24 h
[20] = Cytotoxicity against PBMC (unknown origin) incubated for 24 hrs by CCK8 assay
L02 = assay: Cytotoxicity against human L02 cells incubated for 24 hrs by CCK8 assay; format: functional, cell-based; settings: L02, 24 h

Structure (SMILES): COc1ccc2[nH]cc(C(=O)C(=O)N[C@@H]3c4cc5c(cc4[C@@H](c4cc(OC)c(OC)c(OC)c4)[C@H]4C(=O)OC[C@@H]43)OCO5)c2c1
- Ratio IC50 (K562/A02 [1]): 4.2
- GI50 (K562 [2]): 1.02 µM
- GI50 (K562/A02 [3]): 3.34 µM
- Ratio IC50 (K562/A02 [4]): 4.2

Structure (SMILES): COc1cc([C@@H]2c3cc4c(cc3[C@@H](NCc3cc5ccccc5[nH]3)[C@H]3COC(=O)[C@H]23)OCO4)cc(OC)c1OC
- IC50 (HeLa [5]): 0.1 µM
- IC50 (K562/A02 [6]): 2.23 µM
- IC50 (K562 [7]): 0.1 µM
- Ratio IC50 (HeLa [8]): 1.7
- Ratio IC50 (K562 [9]): 1.7
- Ratio IC50 (K562/A02 [1]): 1.7
- Ratio IC50 [10]: 1.97

Structure (SMILES): COc1cc([C@@H]2c3cc4c(cc3[C@H](OC(=O)/C=C(C)/C=C/C=C(C)/C=C/C3=C(C)CCCC3(C)C)[C@H]3COC(=O)[C@H]23)OCO4)cc(OC)c1OC
- IC50 (MKN-45 [11]): 0.419 µM
- Ratio IC50 (BGC-823 [12]): 6.8
- IC50 (BGC-823 [13]): 0.202 µM
- Ratio IC50 (MKN-45 [14]): 6.8

Structure (SMILES): COc1cc([C@@H]2c3cc4c(cc3[C@@H](OC(=O)CCCC[C@@H]3SC[C@@H]5NC(=O)N[C@@H]53)[C@H]3COC(=O)[C@H]23)OCO4)cc(OC)c1O
- IC50 (A549 [15]): 0.13 µM
- IC50 (MCF7 [16]): 0.13 µM
- IC50 (SW480): 0.13 µM
- IC50 (SMMC-7721): 0.13 µM
- IC50 (HL-60): 0.13 µM
- Activity (CCRF S-180): 37.7%

Structure (SMILES): COc1cc([C@@H]2c3cc4c(cc3[C@H](OC(=O)c3c[nH]c5ccccc35)[C@H]3COC(=O)[C@H]23)OCO4)cc(OC)c1OC
- IC50 (HepG2): 1.93 µM
- IC50 (HeLa [17]): 1.93 µM
- IC50 (A549 [18]): 1.93 µM
- IC50 (MCF7 [19]): 1.93 µM
- IC50 [20]: 75.6 µM
- IC50 (L02): 88.9 µM
